Measured values reported in patent publication US20220125765A1, “PHARMACEUTICAL COMBINATIONS COMPRISING MEBENDAZOLE AND A STRONG OR MODERATE CYP1A2 INHIBITOR” (ZEPHAPHARM LTD, priority 2019, published 2022).
Read-outs that look alike come from different tables or passages of the source.

Columns and labels:
[1] = Stability in human liver microsomes without and with cimetidine or furafylline (Example 4); type: in vitro ADME; settings: human, liver microsomes, substrate 1 μM
Protocol: A minus cofactor control incubation was included for each compound tested where 0.1 M phosphate buffer pH 7.4 was added instead of NADPH (minus NADPH). […] The samples were analysed for mebendazole or phenacetin using LC-MS/MS.
A minus cofactor control incubation was included for each compound tested where 0.1 M phosphate buffer pH 7.4 was added instead of cofactor (minus NADPH). […] The samples were analysed for mebendazole or phenacetin using LC-MS/MS.

CYP3A4 = CYP3A4 (Homo sapiens, UniProt P08684); test: Cytochrome P450 reaction phenotyping, recombinant CYP3A4 (Bactosomes)
Protocol: (§1) Incubations were also performed using control Bactosomes™ (no P450 enzymes present) to reveal any non-enzymatic degradation. Control compounds known to be metabolised specifically by each P450 isoform were included. All incubations were performed singularly for each test compound.
(§2) Incubations were also performed using control Bactosomes™ (no P450 enzymes present) to reveal any non-enzymatic degradation. Control compounds known to be metabolised specifically by each P450 isoform were included. All incubations were performed singularly for each test compound. […] The reactions were stopped by transferring an aliquot of incubate to quench solvent at the appropriate time points, in a 1:3 ratio. The termination plates were centrifuged at 3,000 rpm for 20 min at 4° C. to precipitate the protein.

CYP2C8 = target: T1, CYP2C8 (Homo sapiens, UniProt P10632); test: Cytochrome P450 reaction phenotyping, recombinant CYP2C8 (Bactosomes)
T1 sequence (P10632 1-490): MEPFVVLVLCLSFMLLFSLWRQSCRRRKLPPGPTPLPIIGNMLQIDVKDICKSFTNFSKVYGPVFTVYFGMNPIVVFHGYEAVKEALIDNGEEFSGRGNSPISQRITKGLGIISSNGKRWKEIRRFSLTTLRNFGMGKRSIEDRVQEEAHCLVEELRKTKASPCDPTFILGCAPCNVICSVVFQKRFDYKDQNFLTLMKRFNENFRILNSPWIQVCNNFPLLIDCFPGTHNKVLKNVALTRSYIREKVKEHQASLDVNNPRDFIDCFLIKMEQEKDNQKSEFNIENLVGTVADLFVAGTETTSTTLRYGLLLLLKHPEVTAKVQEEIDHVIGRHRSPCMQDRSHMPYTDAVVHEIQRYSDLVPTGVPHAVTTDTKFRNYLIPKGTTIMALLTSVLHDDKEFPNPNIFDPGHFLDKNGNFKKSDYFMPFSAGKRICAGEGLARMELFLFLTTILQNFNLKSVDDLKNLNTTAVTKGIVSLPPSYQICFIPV
Protocol: as §1, §2

NBXF SK-N-BE(2) = test: 2D monolayer CellTiter-Blue viability, neuroblastoma SK-N-BE(2); type: cell-based; settings: 72 h
Protocol: (§3) Seventeen compounds, including mebendazole (Batch no. […] Efficacy of compounds was assessed using CellTiter-Blue® Cell Viability Assay. Anti-tumor activity is expressed as absolute and relative IC50 and IC70 values, calculated by non-linear regression analysis.

OVXF 1023L = test: 2D monolayer CellTiter-Blue viability, ovarian cancer OVXF 1023L; type: cell-based; settings: for IC50: Homo sapiens, OVXF1023; for Test/Control (%) at Drug Concentration: 72 h
Protocol: Mebendazole was tested in vitro across a panel of 12 tumor cell lines of ovarian and renal cancer by using a 2D monolayer assay. […] OVXF 899L and RXF 486L are P-gp expressing, multidrug resistant cell lines.
Anti-tumor activity is expressed as absolute and relative IC50/70 values, calculated by 4-parameter non-linear curve fit.

NBXF IMR-32 = test: 2D monolayer CellTiter-Blue viability, neuroblastoma IMR-32; type: cell-based; settings: 72 h
Protocol: as §3

SXFO Saos-2 = test: 2D monolayer CellTiter-Blue viability, osteosarcoma Saos-2; type: cell-based; settings: 72 h
Protocol: as §3

[2] = pH 7.4, with cimetidine 30 μM, plus 30 μM cimetidine
[3] = pH 7.4, with cimetidine 100 μM, plus 100 μM cimetidine
[4] = pH 7.4, with cimetidine 300 μM, plus 300 μM cimetidine

Sequence of CYP3A4 (P08684 whole entry, canonical isoform): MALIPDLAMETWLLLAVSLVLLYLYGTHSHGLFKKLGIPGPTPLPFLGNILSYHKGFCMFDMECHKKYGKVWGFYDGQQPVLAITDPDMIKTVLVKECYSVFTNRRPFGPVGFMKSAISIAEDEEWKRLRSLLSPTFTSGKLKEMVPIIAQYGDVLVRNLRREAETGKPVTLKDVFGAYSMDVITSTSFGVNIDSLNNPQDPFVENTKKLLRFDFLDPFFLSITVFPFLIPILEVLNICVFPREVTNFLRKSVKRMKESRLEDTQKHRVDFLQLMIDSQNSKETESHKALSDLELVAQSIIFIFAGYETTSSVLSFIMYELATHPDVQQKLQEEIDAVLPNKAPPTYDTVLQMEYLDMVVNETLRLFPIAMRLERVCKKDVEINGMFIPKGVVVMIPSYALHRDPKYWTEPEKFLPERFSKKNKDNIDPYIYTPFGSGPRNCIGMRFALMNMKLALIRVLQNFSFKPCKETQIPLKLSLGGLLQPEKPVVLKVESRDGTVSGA

half-life at 1 μM [1, 2]: 1.28 h
microsomal CLint at 1 μM [1, 2]: 18 µL/min/mg
half-life at 1 μM [1, 3]: 1.3 h
microsomal CLint at 1 μM [1, 3]: 17.8 µL/min/mg
half-life at 1 μM [1, 4]: 1.54 h
microsomal CLint at 1 μM [1, 4]: 15 µL/min/mg
microsomal CLint at 1 μM ([1]; pH 7.4, with furafylline 3 μM, plus 3 μM furafylline): 2.84 µL/min/mg
microsomal CLint at 1 μM ([1]; pH 7.4, with furafylline 10 μM, plus 10 μM furafylline): 0.232 µL/min/mg
microsomal CLint at 1 μM ([1]; pH 7.4, with furafylline 30 μM, plus 30 μM furafylline): 0.336 µL/min/mg
half-life at 1 μM ([1]; pH 7.4, no inhibitor): 1.04 h
microsomal CLint at 1 μM ([1]; pH 7.4, no inhibitor): 22.2 µL/min/mg
Compound Remaining (% of 0 min) (CYP3A4; CYP3A4, 5 μM, 0 min): 100 % of 0 min
Compound Remaining (% of 0 min) (CYP3A4; CYP3A4, 5 μM, 5 min): 95.1 % of 0 min
Compound Remaining (% of 0 min) (CYP3A4; CYP3A4, 5 μM, 15 min): 85.4 % of 0 min
Compound Remaining (% of 0 min) (CYP3A4; CYP3A4, 5 μM, 30 min): 105 % of 0 min
Compound Remaining (% of 0 min) (CYP3A4; CYP3A4, 5 μM, 45 min): 104 % of 0 min
% compound remaining (CYP3A4; CYP3A4, 5 μM, time not stated): > 87.5%
t1/2 (CYP3A4; CYP3A4, substrate 5 μM): >2.25 h
half-life at 5 μM (CYP3A4; human, recombinant CYP3A4 (Bactosomes), pH 7.4): > 2.25 h
Compound Remaining (% of 0 min) (CYP2C8; CYP2C8, 5 μM, 0 min): 100 % of 0 min
Compound Remaining (% of 0 min) (CYP2C8; CYP2C8, 5 μM, 5 min): 90.6 % of 0 min
Compound Remaining (% of 0 min) (CYP2C8; CYP2C8, 5 μM, 15 min): 93.4 % of 0 min
Compound Remaining (% of 0 min) (CYP2C8; CYP2C8, 5 μM, 30 min): 102 % of 0 min
Compound Remaining (% of 0 min) (CYP2C8; CYP2C8, 5 μM, 45 min): 99.1 % of 0 min
% compound remaining (CYP2C8; CYP2C8, 5 μM, time not stated): > 87.5%
t1/2 (CYP2C8; CYP2C8, substrate 5 μM): >2.25 h
half-life at 5 μM (CYP2C8; human, recombinant CYP2C8 (Bactosomes), pH 7.4): > 2.25 h
IC50 (OVXF 1023L; OVXF 1023, 72 h, read-out: Abs. IC50): > 3.2 µM
IC50 (OVXF 1023L; OVXF 1023, 72 h, read-out: Rel. IC50): > 3.2 µM
Compound: COC(=O)Nc1nc2ccc(C(=O)c3ccccc3)cc2[nH]1 [Mebendazole, methyl N-(6-benzoyl-1H-benzimidazol-2-yl)carbamate]
Test/Control (%) at Drug Concentration (NBXF SK-N-BE(2); 1.0E+00 μM): 13%
Test/Control (%) at Drug Concentration (NBXF SK-N-BE(2); 1.0E+01 μM): 3%
Test/Control (%) at Drug Concentration (NBXF SK-N-BE(2); 1.0E+02 μM): −1%
Test/Control (%) at Drug Concentration (NBXF SK-N-BE(2); 1.0E−01 μM): 55%
Test/Control (%) at Drug Concentration (NBXF SK-N-BE(2); 1.0E−02 μM): 85%
Test/Control (%) at Drug Concentration (NBXF SK-N-BE(2); 3.2E+00 μM): 6%
Test/Control (%) at Drug Concentration (NBXF SK-N-BE(2); 3.2E+01 μM): 2%
Test/Control (%) at Drug Concentration (NBXF SK-N-BE(2); 3.2E−01 μM): 23%
Test/Control (%) at Drug Concentration (NBXF SK-N-BE(2); 3.2E−02 μM): 80%
Test/Control (%) at Drug Concentration (NBXF SK-N-BE(2); 3.2E−03 μM): 87%
Test/Control (%) at Drug Concentration (OVXF 1023L; OVXF 1023, 1.0E+00 μM): 69%
Test/Control (%) at Drug Concentration (OVXF 1023L; OVXF 1023, 1.0E−01 μM): 94%
Test/Control (%) at Drug Concentration (OVXF 1023L; OVXF 1023, 1.0E−02 μM): 101%
Test/Control (%) at Drug Concentration (OVXF 1023L; OVXF 1023, 1.0E−03 μM): 104%
Test/Control (%) at Drug Concentration (OVXF 1023L; OVXF 1023, 1.0E−04 μM): 107%
Test/Control (%) at Drug Concentration (OVXF 1023L; OVXF 1023, 3.2E+00 μM): 62%
Test/Control (%) at Drug Concentration (OVXF 1023L; OVXF 1023, 3.2E−01 μM): 82%
Test/Control (%) at Drug Concentration (OVXF 1023L; OVXF 1023, 3.2E−02 μM): 98%
Test/Control (%) at Drug Concentration (OVXF 1023L; OVXF 1023, 3.2E−03 μM): 101%
Test/Control (%) at Drug Concentration (OVXF 1023L; OVXF 1023, 3.2E−04 μM): 103%
Abs. IC70 (OVXF 1023L; OVXF 1023, 72 h): >3.200 µM
Rel. IC70 (OVXF 1023L; OVXF 1023, 72 h): >3.200 µM
Bot. (%) (OVXF 1023L; OVXF 1023, 72 h, curve fit): 2%
Top (%) (OVXF 1023L; OVXF 1023, 72 h, curve fit): 105%
Test/Control (%) at Drug Concentration (NBXF IMR-32; IMR-32, 1.0E+00 μM): 1%
Test/Control (%) at Drug Concentration (NBXF IMR-32; IMR-32, 1.0E+01 μM): 0%
Test/Control (%) at Drug Concentration (NBXF IMR-32; IMR-32, 1.0E+02 μM): −2%
Test/Control (%) at Drug Concentration (NBXF IMR-32; IMR-32, 1.0E−01 μM): 81%
Test/Control (%) at Drug Concentration (NBXF IMR-32; IMR-32, 1.0E−02 μM): 95%
Test/Control (%) at Drug Concentration (NBXF IMR-32; IMR-32, 3.2E+00 μM): 1%
Test/Control (%) at Drug Concentration (NBXF IMR-32; IMR-32, 3.2E+01 μM): −1%
Test/Control (%) at Drug Concentration (NBXF IMR-32; IMR-32, 3.2E−01 μM): 10%
Test/Control (%) at Drug Concentration (NBXF IMR-32; IMR-32, 3.2E−02 μM): 94%
Test/Control (%) at Drug Concentration (NBXF IMR-32; IMR-32, 3.2E−03 μM): 97%
Test/Control (%) at Drug Concentration (SXFO Saos-2; Saos-2, 1.0E+00 μM): 19%
Test/Control (%) at Drug Concentration (SXFO Saos-2; Saos-2, 1.0E+01 μM): 11%
Test/Control (%) at Drug Concentration (SXFO Saos-2; Saos-2, 1.0E+02 μM): 6%
Test/Control (%) at Drug Concentration (SXFO Saos-2; Saos-2, 1.0E−01 μM): 73%
Test/Control (%) at Drug Concentration (SXFO Saos-2; Saos-2, 1.0E−02 μM): 74%
Test/Control (%) at Drug Concentration (SXFO Saos-2; Saos-2, 3.2E+00 μM): 20%
Test/Control (%) at Drug Concentration (SXFO Saos-2; Saos-2, 3.2E+01 μM): 12%
Test/Control (%) at Drug Concentration (SXFO Saos-2; Saos-2, 3.2E−01 μM): 29%
Test/Control (%) at Drug Concentration (SXFO Saos-2; Saos-2, 3.2E−02 μM): 73%
Test/Control (%) at Drug Concentration (SXFO Saos-2; Saos-2, 3.2E−03 μM): 77%
